Active and inactive are the calls of the source. The rule behind the calls is not given here.
Tests used:
[1] = Upregulation of BMP-2 expression in mouse MC3T3-E1 cells at 4 uM after 24 hrs by luciferase reporter gene assay relative to control; type: functional, cell-based
[2] = tested on: Rattus norvegicus; assay: Antiosteoporotic activity in glucocorticoid-induced Wistar rat osteoporosis model assessed as trabecula formation surface at 30 mg/kg/day, po administered six times a week for 3 months by fluorescence assay (reference value: 7.82 +/- 2.46%); type: functional
[3] = tested on: Rattus norvegicus; assay: Toxicity in glucocorticoid-induced Wistar rat osteoporosis model assessed as alanine transaminase level at 30 mg/kg/day, po administered six times a week for 3 months (reference value: 43.73 +/- 36.21 U/L); type: organism-based; parameters: route oral; conditions: in vivo
[4] = tested on: Rattus norvegicus; assay: Toxicity in glucocorticoid-induced Wistar rat osteoporosis model assessed as effect on mean corpuscular hemoglobin concentration at 30 mg/kg/day, po administered six times a week for 3 months; type: organism-based; parameters: route oral; conditions: in vivo
[5] = tested on: Rattus norvegicus; assay: Toxicity in glucocorticoid-induced Wistar rat osteoporosis model assessed as effect on blood urea nitrogen level at 30 mg/kg/day, po administered six times a week for 3 months; type: organism-based; parameters: route oral; conditions: in vivo
[6] = tested on: Rattus norvegicus; assay: Toxicity in glucocorticoid-induced Wistar rat osteoporosis model assessed as effect on total bilirubin level at 30 mg/kg/day, po administered six times a week for 3 months; type: organism-based; parameters: route oral; conditions: in vivo
[7] = tested on: Rattus norvegicus; assay: Toxicity in glucocorticoid-induced Wistar rat osteoporosis model assessed as effect on red blood cell specific volume at 30 mg/kg/day, po administered six times a week for 3 months; type: organism-based; parameters: route oral; conditions: in vivo
[8] = tested on: Rattus norvegicus; assay: Toxicity in glucocorticoid-induced Wistar rat osteoporosis model assessed as effect on albumin level at 30 mg/kg/day, po administered six times a week for 3 months; type: organism-based; parameters: route oral; conditions: in vivo
[9] = tested on: Rattus norvegicus; assay: Antiosteoporotic activity in glucocorticoid-induced Wistar rat osteoporosis model assessed as trabecular bone volume at 30 mg/kg/day, po administered six times a week for 3 months by fluorescence assay (reference value: 33.09 +/- 5.15%); type: functional, Trabecula
[10] = tested on: Rattus norvegicus; assay: Toxicity in glucocorticoid-induced Wistar rat osteoporosis model assessed as effect on platelets at 30 mg/kg/day, po administered six times a week for 3 months; type: organism-based; parameters: route oral; conditions: in vivo
[11] = tested on: Rattus norvegicus; assay: Toxicity in glucocorticoid-induced Wistar rat osteoporosis model assessed as aspartate transaminase level at 30 mg/kg/day, po administered six times a week for 3 months (reference value: 177.55 +/- 116.98 U/L); type: organism-based; parameters: route oral; conditions: in vivo
[12] = tested on: Rattus norvegicus; assay: Antiosteoporotic activity in glucocorticoid-induced Wistar rat osteoporosis model assessed as trabecula resorption surface at 30 mg/kg/day, po administered six times a week for 3 months by fluorescence assay (reference value: 7.22 +/- 2.04%); type: functional
[13] = tested on: Rattus norvegicus; assay: Toxicity in glucocorticoid-induced Wistar rat osteoporosis model assessed as effect on glucose level at 30 mg/kg/day, po administered six times a week for 3 months; type: organism-based; parameters: route oral; conditions: in vivo
[14] = tested on: Rattus norvegicus; assay: Toxicity in glucocorticoid-induced Wistar rat osteoporosis model assessed as lymph level at 30 mg/kg/day, po administered six times a week for 3 months (reference value: 50.35 +/- 12.96%); type: organism-based; parameters: route oral; conditions: in vivo
[15] = tested on: Rattus norvegicus; assay: Antiosteoporotic activity in glucocorticoid-induced Wistar rat osteoporosis model assessed as increase in trabecula thickness at 30 mg/kg/day, po administered six times a week for 3 months by toluidine blue staining-based light microscopic analysis relative to dexamethasone; type: functional, organism-based
[16] = tested on: Rattus norvegicus; assay: Toxicity in glucocorticoid-induced Wistar rat osteoporosis model assessed as effect on red blood cells at 30 mg/kg/day, po administered six times a week for 3 months; type: organism-based; parameters: route oral; conditions: in vivo
[17] = tested on: Rattus norvegicus; assay: Toxicity in glucocorticoid-induced Wistar rat osteoporosis model assessed as effect on creatinine level at 30 mg/kg/day, po administered six times a week for 3 months; type: organism-based; parameters: route oral; conditions: in vivo
[18] = tested on: Rattus norvegicus; assay: Toxicity in glucocorticoid-induced Wistar rat osteoporosis model assessed as neutrophilic granulocytes level at 30 mg/kg/day, po administered six times a week for 3 months (reference value: 31.95 +/- 8.33%); type: organism-based; parameters: route oral; conditions: in vivo
[19] = tested on: Rattus norvegicus; assay: Antiosteoporotic activity in glucocorticoid-induced Wistar rat osteoporosis model assessed as mineral apposition rate at 30 mg/kg/day, po administered six times a week for 3 months by fluorescence assay (reference value: 1.06 +/- 0.27 micrometer/day); type: functional
[20] = tested on: Rattus norvegicus; assay: Antiosteoporotic activity in glucocorticoid-induced Wistar rat osteoporosis model assessed as increase in trabecula number at 30 mg/kg/day, po administered six times a week for 3 months by toluidine blue staining-based light microscopic analysis relative to dexamethasone; type: functional, organism-based
[21] = tested on: Rattus norvegicus; assay: Toxicity in glucocorticoid-induced Wistar rat osteoporosis model assessed as triglycerides level at 30 mg/kg/day, po administered six times a week for 3 months (reference value: 1.13 +/- 0.69 mmol/L); type: organism-based; parameters: route oral; conditions: in vivo
[22] = tested on: Rattus norvegicus; assay: Toxicity in glucocorticoid-induced Wistar rat osteoporosis model assessed as effect on hemoglobin at 30 mg/kg/day, po administered six times a week for 3 months; type: organism-based; parameters: route oral; conditions: in vivo
[23] = tested on: Rattus norvegicus; assay: Toxicity in glucocorticoid-induced Wistar rat osteoporosis model assessed as effect on mean corpuscular volume at 30 mg/kg/day, po administered six times a week for 3 months; type: organism-based; parameters: route oral; conditions: in vivo
[24] = tested on: Rattus norvegicus; assay: Toxicity in glucocorticoid-induced Wistar rat osteoporosis model assessed as effect on red blood cell distribution width at 30 mg/kg/day, po administered six times a week for 3 months; type: organism-based; parameters: route oral; conditions: in vivo
[25] = tested on: Rattus norvegicus; assay: Toxicity in glucocorticoid-induced Wistar rat osteoporosis model assessed as effect on total protein level at 30 mg/kg/day, po administered six times a week for 3 months; type: organism-based; parameters: route oral; conditions: in vivo
[26] = tested on: Rattus norvegicus; assay: Antiosteoporotic activity in glucocorticoid-induced Wistar rat osteoporosis model assessed as increase in trabecula area at 30 mg/kg/day, po administered six times a week for 3 months by toluidine blue staining-based light microscopic analysis relative to dexamethasone; type: functional, organism-based
[27] = tested on: Rattus norvegicus; assay: Toxicity in glucocorticoid-induced Wistar rat osteoporosis model assessed as white blood cells at 30 mg/kg/day, po administered six times a week for 3 months (reference value: 6.28 +/- 2.78 x 10^9/L); type: organism-based; parameters: route oral; conditions: in vivo
[28] = tested on: Rattus norvegicus; assay: Antiosteoporotic activity in glucocorticoid-induced Wistar rat osteoporosis model assessed as increase in trabecula connectivity at 30 mg/kg/day, po administered six times a week for 3 months by toluidine blue staining-based light microscopic analysis relative to dexamethasone; type: functional, organism-based
[29] = tested on: Mus musculus; assay: Acute toxicity in Kunming mouse assessed as behavioral changes at 500 mg/kg, po administered for 3 days measured during compound dosing and following 14 days; type: organism-based; parameters: dose 500 mg/kg, route oral; conditions: in vivo, 336 h
[30] = tested on: Mus musculus; assay: Acute toxicity in Kunming mouse assessed as shiny fur at 500 mg/kg, po administered for 3 days measured during compound dosing and following 14 days; type: organism-based; parameters: dose 500 mg/kg, route oral; conditions: in vivo, 336 h
[31] = tested on: Rattus norvegicus; assay: Antiosteoporotic activity in glucocorticoid-induced Wistar rat osteoporosis model assessed as densed trabecula at 30 mg/kg/day, po administered six times a week for 3 months by toluidine blue staining-based light microscopic analysis relative to dexamethasone; type: functional, organism-based
[32] = Acute toxicity in po dosed Kunming mouse administered for 3 days measured during compound dosing and following 14 days; type: organism-based; conditions: in vivo

SMILES: CCOC(=O)c1ccc2cc(C(=O)/C=C/c3ccc(OC)cc3)sc2c1
- Activity [1]: 12.2%

SMILES: COC(=O)c1ccc2cc(C(C)O)sc2c1 (centres undefined)
- Activity [1]: 81.4%

SMILES: CCOC(=O)c1cc2c(OC)cccc2o1
- Activity [1]: 60%

SMILES: CC(=O)c1cc2ccccc2s1
- Activity [2]: 7.36%
- Activity [3]: 35.25 U/L
- Activity [4]: Non-toxic
- Activity [5]: Non-toxic
- Activity [6]: Non-toxic
- Activity [7]: Non-toxic
- Activity [8]: Non-toxic
- Activity [9]: 31.57%
- Activity [10]: Non-toxic
- Activity [11]: 129.83 U/L
- Activity [12]: 8.36%
- Activity [13]: Non-toxic
- Activity [14]: 39.85%
- Activity [15]: Active
- Activity [16]: Non-toxic
- Activity [17]: Non-toxic
- Activity [18]: 43.25%
- Activity [19]: 1.24 micrometer/day
- Activity [20]: Active
- Activity [21]: 0.46 mmol/L
- Activity [22]: Non-toxic
- Activity [23]: Non-toxic
- Activity [24]: Non-toxic
- Activity [25]: Non-toxic
- Activity [26]: Active
- Activity [27]: 3.12 ×10⁹ /L
- Activity [28]: Active

SMILES: COC(=O)c1ccc2sc(C(C)O)cc2c1 (centres undefined)
- Activity [1]: 56.9%

SMILES: CCOC(=O)c1ccc2cc(C(=O)/C=C/c3ccc(OC)c(OC)c3)sc2c1
- Activity [1]: 0.7%

SMILES: CCOC(=O)c1ccc2cc(C(=O)/C=C/c3ccccc3Cl)sc2c1
- Activity [1]: 39.1%

SMILES: COc1cccc2oc(C(=O)C[S+](C)[O-])cc12 (centres undefined)
- Activity [1]: 19.6%

SMILES: COc1ccc2oc(C(O)C[S+](C)[O-])cc2c1 (centres undefined)
- Activity [1]: 16.9%

SMILES: COc1ccc2oc(C(=O)C[S+](C)[O-])cc2c1 (centres undefined)
- Activity [1]: 2.1%

SMILES: CC(=O)c1cc2cc(C(=O)O)ccc2s1
- Activity [2]: 5.03%
- Activity [3]: 26.67 U/L
- Activity [4]: Non-toxic
- Activity [5]: Non-toxic
- Activity [29]: Non-toxic
- Activity [6]: Non-toxic
- Activity [7]: Non-toxic
- Activity [30]: Non-toxic
- Activity [8]: Non-toxic
- Activity [9]: 23.13%
- Activity [10]: Non-toxic
- Activity [11]: 103.17 U/L
- Activity [12]: 10.3%
- Activity [13]: Non-toxic
- Activity [14]: 36.73%
- Activity [16]: Non-toxic
- Activity [17]: Non-toxic
- Activity [18]: 47.71%
- Activity [19]: 1.03 micrometer/day
- Activity [21]: 0.62 mmol/L
- Activity [22]: Non-toxic
- Activity [23]: Non-toxic
- Activity [24]: Non-toxic
- Activity [25]: Non-toxic
- Activity [1]: 93.2%
- Activity [31]: Active
- LD50 at 336 h [32]: > 500 mg/kg
- Activity [27]: 3.31 ×10⁹ /L

Source: ChEMBL document CHEMBL3414511, “Synthesis of a novel class of substituted benzothiophene or benzofuran derivatives as BMP-2 up-regulators and evaluation of the BMP-2-up-regulating effects in vitro and the effects on glucocorticoid-induced osteoporosis in rats” (Eur J Med Chem, 2015)
